Experimental findings from patent EP3221422B1, “COPPER(I) COMPLEXES FOR OPTOELECTRONIC APPLICATIONS” (cynora GmbH, priority 2014, dated 2016) are described below.

The data set can be described thus: Solubility tests of copper(I) complexes in organic solvents. The data set is classed as physicochemical. Particulars: for Löslichkeit (qualitative): effect of the unsymmetrical ligand m-Tolylphosphin s. The procedure: Bei Koordination an ein Kupferatom könnten die m-Tolyl-Gruppen jeweils auf zwei verschiedene Weisen gedreht vorliegen (Figur 5). Vermutlich wird auf dieses Weise die Packung im Festkörper gestört, wodurch eine höhere Löslichkeit erzielt wird. In der Wärme (60 °C) wurde beispielsweise für Komplex 1-I-s eine Löslichkeit von rund 40 mg mL^-1 erreicht; weitere Löslichkeitsdaten sind in Tabelle 1 aufgeführt.
Komplex 1-I-s zeigt neben einer guten Löslichkeit auch eine besonders hohe Quanteneffizienz, sowohl in Pulver (93%) als auch im Dünnfilm (90%). Interessanterweise kommt es bei der Filmpräparation dieser Verbindung zu nahezu keiner Verschiebung der Emissionswellenlänge (Film: 550 nm, Pulver: 547 nm). Offenbar liegt bereits im Festkörper eine Verzerrung ähnlich der Situation im Film vor. Die Struktur wird, wie oben erläutert wurde, durch die als sterisch anspruchsvolle Gruppen wirkenden Tolylreste stabilisiert. Tabelle 1: Löslichkeitstests für Komplex 1-I-s.

Where only a bound is given, the exact number is not on record here.

Take “(MePyrPHOS)(Tris-m-tolyl-phosphin)2Cu2I2 [Komplex 1-I-s]”: the “Löslichkeit (qualitative)” value is reported as “erhöhte Löslichkeit”. Moreover, the Löslichkeit entry (1-Heptanol, Konzentration: 5 mg/mL) was “Ja (Wärme)”. The Löslichkeit entry (1-Heptanol, Konzentration: 10 mg/mL) is reported as “Ja (Wärme)”. The Löslichkeit entry (1-Heptanol, Konzentration: 2,5 mg/mL) is “Ja”. Moreover, the Löslichkeit entry (1-Hexanol, Konzentration: 5 mg/mL) is “Ja (Wärme)”. Besides, for the setting “1-Hexanol, Konzentration: 10 mg/mL”, the Löslichkeit result was “Ja (Wärme)”. In addition, the Löslichkeit result (1-Hexanol, Konzentration: 2,5 mg/mL) was “Ja”. For the same substance, the Löslichkeit result (Aceton, Konzentration: 5 mg/mL) was “Ja”. The Löslichkeit result (Aceton, Konzentration: 10 mg/mL) is “Ja”. Besides, the Löslichkeit entry (Aceton, Konzentration: 2,5 mg/mL) is on record as “Ja”. Further, the Löslichkeit result (Acetonitril, Konzentration: 5 mg/mL) is “Ja (Wärme)”. In addition, the Löslichkeit result (Acetonitril, Konzentration: 10 mg/mL) is listed as “Ja (Wärme)”. Further, under “Acetonitril, Konzentration: 2,5 mg/mL”, the Löslichkeit result is listed as “Ja”. In addition, the Löslichkeit entry (Cyclooctan, Konzentration: 5 mg/mL) is reported as “Ja (Wärme)”. Moreover, under “Cyclooctan, Konzentration: 10 mg/mL”, the Löslichkeit result is “Nein”. Besides, the Löslichkeit result (Cyclooctan, Konzentration: 2,5 mg/mL) is recorded as “Ja”. In addition, for the setting “Essigester, Konzentration: 5 mg/mL”, the Löslichkeit entry was “Ja”. In addition, for the setting “Essigester, Konzentration: 10 mg/mL”, the Löslichkeit entry is “Ja”. Moreover, under “Essigester, Konzentration: 2,5 mg/mL”, the Löslichkeit result is “Ja”. The same substance displayed a Löslichkeit (In der Wärme (60 °C), solvent not stated) of roughly 40 mg/mL. The “Löslichkeit (max.)” value (Mesitylen) is on record as no more than 20 mg/mL. Under “Mesitylen, Konzentration: 5 mg/mL”, the Löslichkeit entry is given as “Ja”. Moreover, the Löslichkeit result (Mesitylen, Konzentration: 10 mg/mL) is reported as “Ja”. Moreover, the Löslichkeit entry (Mesitylen, Konzentration: 2,5 mg/mL) is listed as “Ja”. Besides, under “O-Xylol”, the “Löslichkeit (max.)” value is no more than 20 mg/mL. For the same substance, the Löslichkeit result (O-Xylol, Konzentration: 5 mg/mL) was “Ja”. Moreover, the Löslichkeit entry (O-Xylol, Konzentration: 10 mg/mL) is on record as “Ja”. In addition, the Löslichkeit entry (O-Xylol, Konzentration: 2,5 mg/mL) was “Ja”. Besides, where the note is “Tetralin”, the “Löslichkeit (max.)” value was no more than 20 mg/mL. Also, the Löslichkeit entry (Tetralin, Konzentration: 5 mg/mL) is “Ja”. Moreover, the Löslichkeit entry (Tetralin, Konzentration: 10 mg/mL) is “Ja”. Further, where the note is “Tetralin, Konzentration: 2,5 mg/mL”, the Löslichkeit result is on record as “Ja”.

For the substance “(PyrPHOS)(tris-m-tolyl-phosphin)2Cu2I2 [Komplex 11-I-s]”, the “Löslichkeit (qualitative)” value is “erhöhte Löslichkeit”.

With “(Tris-(3-methyl-phenyl)phosphin)(4-tBu-pyridin)Cu2Br2 [E-Br-s]”, the “Löslichkeit (qualitative)” value is given as “erhöhte Löslichkeit”.

Regarding “(Tris-(3-methyl-phenyl)phosphin)(4-tBu-pyridin)Cu2I2 [E-I-s]”, the “Löslichkeit (qualitative)” value is recorded as “erhöhte Löslichkeit”.
